The test system of one data set is human skin warts. Briefly: topical treatment of human skin warts. Format: in vivo. Particulars: topical application. The protocol: Initial steps involved extracting Tecoma stans leaves with methanol or ethanol alcohol. Then, the extract was obtained via evaporating the alcohol and re-suspending the dry matter in pure DMSO (dimethylsulphoxide) at a concentration of 20 mg/mL DMSO. […] As disclosed herein, 14 compounds have been isolated from dry leaves of Tecoma stans, four of which are known for their antidiabetic effect and ability to reduce the glycemic index. After identifying the 14 compounds in the methanolic extract from the dry leaves, each compound was independently tested on human skin warts. […] Therefore, corosolic acid was mixed with its two related compounds, namely oleanolic acid (FIG. 1E) and ursolic acid (FIG. 1F), isolated from the same extract. Compositions containing a mixture of these three compounds were prepared by mixing the compounds in an ointment at a concentration of 1 mg/gm of each compound per a total weight of the ointment, emulsifying the compounds in a lotion base at a concentration of 0.1 mg/mL of each compound per a total volume of the lotion, or suspending three compounds together in DMSO at a concentration of 1 mg/mL of each compound per a total volume of DMSO. The compositions were applied topically twice a day to the desired skin area as indicated in each case (see FIGS. 3[…]).

Data set [1] in a line: skin tolerability on tested subjects after topical application. The class given is in vivo, human.

`C[C@H]1[C@H](C)CC[C@]2(C(=O)O)CC[C@]3(C)C(=CC[C@@H]4[C@@]5(C)C[C@@H](O)[C@H](O)C(C)(C)[C@@H]5CC[C@]43C)[C@H]12` [corosolic acid, (2α,3β)-2,3-dihydroxyurs-12-en-28-oic acid]: the “curing effect on skin warts” value in the data set with human skin warts is listed as “minor curing effect”. For the same compound, the “harmlessness on humans / skin irritation” value in data set [1] was “harmless on humans, and cause no skin irritations”.

Consider `C[C@H]1[C@H](C)CC[C@]2(C(=O)O)CC[C@]3(C)C(=CC[C@@H]4[C@@]5(C)CC[C@H](O)C(C)(C)[C@@H]5CC[C@]43C)[C@H]12` [ursolic acid, 3β-Hydroxy-12-ursen-28-ic acid], for which the “harmlessness on humans / skin irritation” value in data set [1] was “harmless on humans, and cause no skin irritations”.

On to `CC1(C)CC[C@]2(C(=O)O)CC[C@]3(C)C(=CC[C@@H]4[C@@]5(C)CC[C@H](O)C(C)(C)[C@@H]5CC[C@]43C)[C@@H]2C1` [oleanolic acid], for which the “harmlessness on humans / skin irritation” value in data set [1] was “harmless on humans, and cause no skin irritations”.

The record behind these values is US11903987B2, “Artificial compositions comprising corosolic acid, oleanolic acid; and ursolic acid in a form of an emulsion, salve, ointment, suspension, or gel” (National Guard Health Affairs, priority 2018, dated 2024).
